# From patent US12576087B2, “Aryloxypiperidine pyrazole compounds as indoleamine 2,3-dioxygenase inhibitors” (Merck Sharp & Dohme LLC, priority 2018, dated 2026)
# Target: IDO1 (Homo sapiens, UniProt P14902)
# Assay: IDO1 Human Whole Blood Assay
# Assay type: cell-based
# Settings: WBLD taken as whole blood; read-out: WBLD IC50
# Experimental: Compounds to be tested were serially diluted in ten 3-fold steps in DMSO starting from 10 mM. 3 μL of compound dilutions or DMSO alone were then dispensed from the dilution plate into a polypropylene 96-well assay plate containing 97 μL of RPMI medium using an Echo 555 acoustic liquid handler (Labcyte). LPS and IFNγ was prepared in RPMI medium to a 10× of final conc. (1000 ng/mL), final concentration is 100 ng/mL.
# Human whole blood was drawn in sodium heparin coated tubes from healthy internal donors. 240 μL of blood was transferred to each of the wells of a v-bottom 96 well plate. 30 μL of compound was transferred from intermediate dilution plate, and incubated for 15 min. 30 μL from stimulants was then transferred to blood and mixed thoroughly. Plate was covered with breathable membrane and incubated at 37° C. for overnight (18 h).
# On day 2, isotope labeled standard solutions of kunurenine and tryptophan was made in water at 10× concentration and 30 μL was added to the blood at 3 μM final concentration. The assay plates were centrifuged at 300×G for 10 min with no brake to separate plasma from red blood cells. 60 μL of plasma samples was removed without disturbing red blood cells. Plasma was diluted with RPMI in 1:1 ratio and proteins were precipitated out with two volumes of Acetonitrile. The plates were centrifuged at 4000×G for 60 min. 20 μL of supernatant was carefully transferred to a 384 well plate containing 40 μL of 0.1% formic acid in water and analyzed by LC/MS/MS.
# LC/MS/MS analyses were performed using Thermo Fisher's LX4-TSQ Quantum Ultra system. This system consists of four Agilent binary high-performance liquid chromatography (HPLC) pumps and a TSQ Quantum Ultra triple quadrupole MS/MS instrument. For each sample, 5 μL were injected onto an Atlantis T3 column (2.1 mm×150 mm, 3 μm particle size) from Waters. The mobile phase gradient pumped at 0.8 mL/min was used to elute the analytes from the column at 25° C. The elution started at 0% B increasing linearly to 25% B at 6.5 min, holding at 25% for 1 min, re-equilibrating to 10 min. Mobile phase A consisted of 0.1% formic acid in water. Mobile phase B consisted of 0.1% of formic acid in acetonitrile. Data were acquired in positive mode using a HESI interface. The operational parameters for the TSQ Quantum Ultra instrument were a spray voltage of 4000 V, capillary temperature of 380° C., vaporizer temperature 400° C., shealth gas 60 arbitrary units, Aux gas 20 arbitrary units, tube lens 85 and collision gas 1.2 mTorr. SRM chromatograms of kynurenine (Q1: 209.2>Q3:94.0) and internal standard (Q1: 215.3>Q3:98.2) were collected for 90 sec. The peak area was integrated by Xcalibur Quan software. The ratios between the kynurenine generated in the reaction and 2D6-Kynurenine spiked-in internal standard were used to generate percentage inhibition and IC50 values. Compounds were titrated and IC50's were calculated by 4 parameter sigmoidal curve fitting formula.
# IDO1, sequence (P14902 whole entry): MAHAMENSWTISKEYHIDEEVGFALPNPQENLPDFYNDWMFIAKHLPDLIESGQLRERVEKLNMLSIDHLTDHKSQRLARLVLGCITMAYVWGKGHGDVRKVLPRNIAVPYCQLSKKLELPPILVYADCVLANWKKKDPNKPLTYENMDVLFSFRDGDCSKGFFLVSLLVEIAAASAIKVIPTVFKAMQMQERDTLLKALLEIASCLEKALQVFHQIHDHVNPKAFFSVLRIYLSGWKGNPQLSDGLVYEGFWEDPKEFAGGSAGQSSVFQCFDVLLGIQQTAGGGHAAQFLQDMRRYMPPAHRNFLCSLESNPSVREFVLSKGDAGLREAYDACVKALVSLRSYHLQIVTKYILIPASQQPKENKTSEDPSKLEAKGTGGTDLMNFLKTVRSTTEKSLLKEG
row,SMILES,IC50 [nM]
1,"Cc1cc(F)ccc1OC1CCN(C(=O)Cn2nc(C(=O)N3CC[C@H](O)[C@H](F)C3)c3c2CCCC3)CC1 (racemic) [Example 77, 1-[4-(4-fluoro-2-methyl-phenoxy)-1-piperidyl]-2-[3-[rac-(3R,4S)-3-fluoro-4-hydroxy-piperidine-1-carbonyl]-4,5,6,7-tetrahydroindazol-1-yl]ethanone]",267
2,"O=C(CO)N1CCN(C(=O)c2nn(CC(=O)N3CCC(Oc4ccccc4Cl)C4CC43)c3c2[C@@H]2C[C@@H]2C3)CC1 (single isomer, unassigned) [Example 170]",102
3,"O=C(c1nn(CC(=O)N2CCC(Oc3ccccc3Cl)C3CC32)c2c1[C@@H]1C[C@@H]1C2)N1CCC(OCCO)CC1 (single isomer, unassigned) [Example 171]",150
4,"C[C@@H]1C[C@H](Oc2ccccc2Cl)CCN1C(=O)Cn1nc(C(=O)N2CCN(C(=O)CO)CC2)c2c1C[C@H]1C[C@@H]21 [Example 4, 1-((2R,4R)-4-(2-chlorophenoxy)-2-methylpiperidin-1-yl)-2-((3bR,4aR)-3-(4-(2-hydroxyacetyl)piperazine-1-carbonyl)-3b,4,4a,5-tetrahydro-1H-cyclopropa[3,4]cyclopenta[1,2-c]pyrazol-1-yl)ethanone]",315
5,"CC(=O)NC1CCN(C(=O)c2nn(CC(=O)N3CCC(Oc4ccccc4Cl)CC3)c3c2CCCC3)CC1 [Example 6, N-(1-(1-(2-(4-(2-chlorophenoxy)piperidin-1-yl)-2-oxoethyl)-4,5,6,7-tetrahydro-1H-indazole-3-carbonyl)piperidin-4-yl)acetamide]",596
6,"C[C@@H]1C[C@H](Oc2ncccc2C(F)(F)F)CCN1C(=O)Cn1nc(C(=O)N2CCC(OCCO)CC2)c2c1C[C@H]1C[C@@H]21 [Example 8, 2-((3bR,4aR)-3-(4-(2-hydroxyethoxy)piperidine-1-carbonyl)-3b,4,4a,5-tetrahydro-1H-cyclopropa[3,4]cyclopenta[1,2-c]pyrazol-1-yl)-1-((2R,4R)-2-methyl-4-((3-(trifluoromethyl)pyridin-2-yl)oxy)piperidin-1-yl)ethanone]",212
7,"Cc1ccccc1OC1CCN(C(=O)Cn2nc(C(=O)N3CC[C@H](O)C[C@@H]3C)c3c2CCCC3)CC1 [Example 17, 2-(3-((2S,4S)-4-hydroxy-2-methylpiperidine-1-carbonyl)-4,5,6,7-tetrahydro-1H-indazol-1-yl)-1-(4-(o-tolyloxy)piperidin-1-yl)ethanone]",114
8,"Cc1ccccc1OC1CCN(C(=O)Cn2nc(C(=O)N3CCC(O)(C(F)F)CC3)c3c2CCCC3)CC1 [Example 22, 2-(3-(4-(difluoromethyl)-4-hydroxypiperidine-1-carbonyl)-4,5,6,7-tetrahydro-1H-indazol-1-yl)-1-(4-(o-tolyloxy)piperidin-1-yl)ethanone]",92.4
9,"CC(=O)NC1CCN(C(=O)c2nn(CC(=O)N3CCC(Oc4ccccc4C)CC3)c3c2CCCC3)CC1 [Example 24, N-(1-(1-(2-oxo-2-(4-(o-tolyloxy)piperidin-1-yl)ethyl)-4,5,6,7-tetrahydro-1H-indazole-3-carbonyl)piperidin-4-yl)acetamide]",314
10,"Cc1ccccc1OC1CCN(C(=O)Cn2nc(C(=O)N3CCC(O)(CF)CC3)c3c2CCCC3)CC1 [Example 26, 2-(3-(4-(fluoromethyl)-4-hydroxypiperidine-1-carbonyl)-4,5,6,7-tetrahydro-1H-indazol-1-yl)-1-(4-(o-tolyloxy)piperidin-1-yl)ethanone]",93.8
11,"CC(=O)NC1CCN(C(=O)c2nn(CC(=O)N3CCC(Oc4ccccc4C)CC3)c3c2[C@@H]2C[C@@H]2C3)CC1 [Example 29, N-(1-((3bR,4aR)-1-(2-oxo-2-(4-(o-tolyloxy)piperidin-1-yl)ethyl)-3b,4,4a,5-tetrahydro-1H-cyclopropa[3,4]cyclopenta[1,2-c]pyrazole-3-carbonyl)piperidin-4-yl)acetamide]",114
12,"Cc1ccccc1OC1CCN(C(=O)Cn2nc(C(=O)N3CCC(F)(CO)CC3)c3c2CCC3)CC1 [Example 30, 2-(3-(4-fluoro-4-(hydroxymethyl)piperidine-1-carbonyl)-5,6-dihydrocyclopenta[c]pyrazol-1(4H)-yl)-1-(4-(o-tolyloxy)piperidin-1-yl)ethanone]",188
13,"Cc1ccccc1OC1CCN(C(=O)Cn2nc(C(=O)N3CC[C@H](O)[C@H](F)C3)c3c2CCCC3)CC1 [Example 31, 2-(3-((3R,4S)-3-fluoro-4-hydroxypiperidine-1-carbonyl)-4,5,6,7-tetrahydro-1H-indazol-1-yl)-1-(4-(o-tolyloxy)piperidin-1-yl)ethanone]",590

# Continued, values first:
row,IC50 [nM],SMILES
1,64,"Cc1ccccc1OC1CCN(C(=O)Cn2nc(C(=O)N3CCC(O)CC3)c3c2CCCC3)CC1 [Example 18, 2-(3-(4-hydroxypiperidine-1-carbonyl)-4,5,6,7-tetrahydro-1H-indazol-1-yl)-1-(4-(o-tolyloxy)piperidin-1-yl)ethanone]"
2,46.7,"Cc1ccccc1OC1CCN(C(=O)Cn2nc(C(=O)N3CC[C@H](O)[C@H](F)C3)c3c2C[C@H]2C[C@@H]32)CC1 [Example 16, 2-((3bR,4aR)-3-((3R,4S)-3-fluoro-4-hydroxypiperidine-1-carbonyl)-3b,4,4a,5-tetrahydro-1H-cyclopropa[3,4]cyclopenta[1,2-c]pyrazol-1-yl)-1-(4-(o-tolyloxy)piperidin-1-yl)ethanone]"
3,40.2,"Cc1ccccc1OC1CCN(C(=O)Cn2nc(C(=O)N3CCC(O)CC3)c3c2C[C@H]2C[C@@H]32)CC1 [Example 21, 2-((3bR,4aR)-3-(4-hydroxypiperidine-1-carbonyl)-3b,4,4a,5-tetrahydro-1H-cyclopropa[3,4]cyclopenta[1,2-c]pyrazol-1-yl)-1-(4-(o-tolyloxy)piperidin-1-yl)ethanone]"
4,27.3,"Cc1ccccc1OC1CCN(C(=O)Cn2nc(C(=O)N3CCC(OCCO)CC3)c3c2CCC3)CC1 [Example 19, 2-(3-(4-(2-hydroxyethoxy)piperidine-1-carbonyl)-5,6-dihydrocyclopenta[c]pyrazol-1(4H)-yl)-1-(4-(o-tolyloxy)piperidin-1-yl)ethanone]"
5,26.3,"Cc1ccccc1OC1CCN(C(=O)Cn2nc(C(=O)N3CC[C@@H](O)[C@@H](F)C3)c3c2C[C@H]2C[C@@H]32)CC1 [Example 27, 2-((3bR,4aR)-3-((3S,4R)-3-fluoro-4-hydroxypiperidine-1-carbonyl)-3b,4,4a,5-tetrahydro-1H-cyclopropa[3,4]cyclopenta[1,2-c]pyrazol-1-yl)-1-(4-(o-tolyloxy)piperidin-1-yl)ethanone]"
6,22.9,"Cc1ccccc1OC1CCN(C(=O)Cn2nc(C(=O)N3CC[C@H](O)[C@@H](F)C3)c3c2CCCC3)CC1 [Example 23, 2-(3-((3S,4S)-3-fluoro-4-hydroxypiperidine-1-carbonyl)-4,5,6,7-tetrahydro-1H-indazol-1-yl)-1-(4-(o-tolyloxy)piperidin-1-yl)ethanone]"
7,20,"Cc1ccccc1OC1CCN(C(=O)Cn2nc(C(=O)N3CCC(OCCO)CC3)c3c2CCCC3)CC1 [Example 20, 2-(3-(4-(2-hydroxyethoxy)piperidine-1-carbonyl)-4,5,6,7-tetrahydro-1H-indazol-1-yl)-1-(4-(o-tolyloxy)piperidin-1-yl)ethanone]"
8,13,"Cc1ccccc1OC1CCN(C(=O)Cn2nc(C(=O)N3CCN(C(=O)CO)CC3)c3c2C[C@H]2C[C@@H]32)CC1 [Example 2, 2-Hydroxy-1-(4-((3bR,4aR)-1-(2-oxo-2-(4-(o-tolyloxy)piperidin-1-yl)ethyl)-3b,4,4a,5-tetrahydro-1H-cyclopropa[3,4]cyclopenta[1,2-c]pyrazole-3-carbonyl)piperazin-1-yl)ethanone]"

# Same assay, conditions: human whole blood, LPS and IFNγ 100 ng/mL, 18 h, kynurenine by LC/MS/MS; read-out: IDO1 human whole blood assay, IC50
row,IC50 [nM],SMILES
1,543,"NC(=O)CN1CCN(C(=O)c2nn(CC(=O)N3CCC(Oc4ccccc4Cl)CC3)c3c2CCCC3)CC1 [Example 5, 2-(4-(1-(2-(4-(2-chlorophenoxy)piperidin-1-yl)-2-oxoethyl)-4,5,6,7-tetrahydro-1H-indazole-3-carbonyl)piperazin-1-yl)acetamide]"
2,378,"CCOC(=O)c1nn(CC(=O)N2CC[C@@H](Oc3ccccc3Cl)C[C@H]2C)c2c1CCCC2 [Example 11, ethyl 1-(2-((2R,4R)-4-(2-chlorophenoxy)-2-methylpiperidin-1-yl)-2-oxoethyl)-4,5,6,7-tetrahydro-1H-indazole-3-carboxylate]"
3,625,"CC(=O)NC1CCN(C(=O)c2nn(CC(=O)N3CCC(Oc4ccccc4C)CC3)c3c2[C@@H]2C[C@@H]2C3)CC1 [Example 29, N-(1-((3bR,4aR)-1-(2-oxo-2-(4-(o-tolyloxy)piperidin-1-yl)ethyl)-3b,4,4a,5-tetrahydro-1H-cyclopropa[3,4]cyclopenta[1,2-c]pyrazole-3-carbonyl)piperidin-4-yl)acetamide]"
